Measurements as given in patent publication US9681664B2, “Macrocyclic picolinamides as fungicides” (Dow Agrosciences LLC, priority 2012, dated 2017).
Where two headings read alike, the source gives them in different places.

Key:
[1] = test system: Puccinia triticina; Synonym: Puccinia recondite f. sp. tritici; test: Wheat brown rust (PUCCRT) disease control on wheat seedlings; format: in vivo; details: Puccinia triticina; for pest or weed control at 121.5 g/ha: low volume application, 121.5 g/H
Outline: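 Yuma wheat grown to first fully emerged leaf was inoculated with Puccinia triticina spore suspension either before or after fungicide treatment, held overnight at 22° C. and 100% RH in darkness, then kept at 24° C. Fungicide applied by booth sprayer to run-off (acetone/water, 110 ppm Triton X-100) or as EC by track spray.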

[2] = test system: Mycosphaerella graminicola; Anamorph: Septoria tritici; test: Leaf blotch of wheat (SEPTTR) disease control on wheat seedlings; format: in vivo; details: Zymoseptoria tritici; for pest or weed control at 121.5 g/ha: low volume application, 121.5 g/H
Outline: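 Protective or curative format: Septoria tritici inoculation either preceded or followed fungicide application to first-leaf Yuma wheat. Severity scored 0–100%; control expressed versus untreated.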

Phakopsora pachyrhizi = test: Asian soybean rust (PHAKPA) disease control; format: in vivo; details: topical, high volume
Procedure: Technical grades of materials were dissolved in acetone, which were then mixed with nine volumes of water containing 0.011% Tween 20. The fungicide solutions were applied onto soybean seedlings using an automated booth sprayer to run-off. All sprayed plants were allowed to air dry prior to further handling.
Soybean plants (variety Williams 82) were grown in soil-less Metro mix, with one plant per pot. Two weeks old seedlings were used for testing. Plants were inoculated either 3 days prior to or 1 day after fungicide treatments. Plants were incubated for 24 h in a dark dew room at 22° C. and 100% RH then transferred to a growth room at 23° C. for disease to develop. Disease severity was assessed on the sprayed leaves.

[3] = test system: Glomerella lagenarium; Anamorph: Colletotrichum lagenarium; test: Cucumber anthracnose (COLLLA) disease control; format: in vivo; details: Colletotrichum orbiculare, 24 h, 1 Day Protectant, high volume, read-out: Disease Control COLLLA 1 DP
Procedure: Technical grades of materials were dissolved in acetone, which were then mixed with nine volumes of water containing 110 ppm Triton X-100. The fungicide solutions were applied onto wheat seedlings using an automated booth sprayer to run-off. All sprayed plants were allowed to air dry prior to further handling. All fungicides were evaluated using the aforementioned method for their activity vs. all target diseases. Wheat leaf blotch and brown rust activity were also evaluated using track spray applications, in which case the fungicides were formulated as EC formulations, containing 0.1% Trycol 5941 in the spray solutions. Cucumber seedlings (variety Bush Pickle) were propagated in soil-less Metro mix, with each pot having one plant, and used in the test when 12 to 14 days old. Test plants were inoculated with an aqueous spore suspension of Colletotrichum lagenarium 24 hr after fungicide treatments. After inoculation the plants were kept in a dew room at 22° C. with 100% relative humidity for 48 hr to permit spores to germinate and infect the leaf. The plants were then transferred to a growth room set at 22° C. for disease to develop. Fungicide formulation, application and disease assessment on the sprayed leaves followed the procedures as described in the Example A.

[4] = 24 h, High volume application, 1 Day Protectant, read-out: PUCCRT 1DP disease control
[5] = 72 h, High volume application, 3 Day Curative, read-out: PUCCRT 3DC disease control
[6] = 24 h, High volume application, 1 Day Protectant, read-out: SEPTTR 1DP disease control
[7] = 72 h, High volume application, 3 Day Curative, read-out: SEPTTR 3DC disease control
[8] = 24 h, 1 Day Protectant, read-out: Disease Control PHAKPA 1DP
[9] = 72 h, 3 Day Curative, read-out: Disease Control PHAKPA 3DC

Row | melting point [°C] | Compound | pest or weed control at 100 ppm [1, 4] [%] | pest or weed control at 100 ppm [1, 5] [%] | pest or weed control at 100 ppm [2, 6] [%] | pest or weed control at 100 ppm [2, 7] [%] | pest or weed control at 25 ppm (Phakopsora pachyrhizi; [8]) [%] | other results
1 | 231 to 235 | CC(C)CO[C@H]1CCC[C@H](N)C(=O)O[C@@H](C)[C@@H]1OC(=O)C1CC1.Cl | – | – | – | – | – | –
2 | 226 to 229 | CCCO[C@H]1[C@H](C)OC(=O)[C@@H](N)CCC[C@@H]1OCC(C)C.Cl | – | – | – | – | – | –
3 | 236 to 240 | CC(C)CO[C@H]1CCC[C@H](N)C(=O)O[C@@H](C)[C@@H]1OC/C=C/C(F)(F)F.Cl | – | – | – | – | – | –
4 | 198 to 200 | COc1ccc(O[C@H]2CCC[C@H](N)C(=O)O[C@@H](C)[C@@H]2OCC(C)C)cc1.Cl | – | – | – | – | – | –
5 | 246 to 248 | C[C@@H]1OC(=O)[C@@H](N)CCC[C@H](OC2CCCC2)[C@H]1OC1CCCC1.Cl | – | – | – | – | – | –
6 | 188 to 230 | CC(C)CO[C@H]1[C@H](C)OC(=O)[C@@H](N)CCC[C@@H]1OCC(C)C.Cl | – | – | – | – | – | –
7 | 94 to 95 | COc1ccnc(C(=O)N[C@H]2CCC[C@H](OCC(C)C)[C@@H](OCC(C)C)[C@H](C)OC2=O)c1O [F21] | 80 to 100 | 80 to 100 | 0 to 80 | 0 to 80 | – | –
8 | 108 to 114 | COc1ccnc(C(=O)N[C@H]2CCC[C@H](OCC(C)C)[C@@H](OCCCC(F)(F)F)[C@H](C)OC2=O)c1O [F41] | 80 to 100 | 80 to 100 | 0 to 80 | 80 to 100 | – | –
9 | 89 to 91 | COc1ccnc(C(=O)N[C@H]2CCC[C@H](Oc3ccc(F)cc3)[C@@H](Oc3ccc(F)cc3)[C@H](C)OC2=O)c1O [F50] | 80 to 100 | 80 to 100 | 80 to 100 | 0 to 80 | – | –
10 | 65 to 67 | COc1ccnc(C(=O)N[C@H]2CCC[C@H](OCC(C)C)[C@@H](Oc3ccc(F)cc3)[C@H](C)OC2=O)c1O [F55] | 80 to 100 | 80 to 100 | 80 to 100 | 80 to 100 | – | –
11 | 139 to 141 | COc1ccnc(C(=O)N[C@H]2CCC[C@H](Oc3ccc(F)cc3)[C@@H](OCC(C)C)[C@H](C)OC2=O)c1OCOC(C)=O [F63] | 80 to 100 | 80 to 100 | 80 to 100 | 80 to 100 | – | –
12 | 118 to 120 | COc1ccc(O[C@H]2CCC[C@H](NC(=O)c3nccc(OC)c3OCOC(C)=O)C(=O)O[C@@H](C)[C@@H]2OCC(C)C)cc1 [F68] | 80 to 100 | 80 to 100 | 80 to 100 | 80 to 100 | 80 to 100 | –
13 | 61 to 63 | COc1ccnc(C(=O)N[C@H]2CCC[C@H](OC3CCCC3)[C@@H](OC3CCCC3)[C@H](C)OC2=O)c1O [F73] | 80 to 100 | 80 to 100 | 0 to 80 | 80 to 100 | – | –
14 | – | COc1ccnc(C(=O)N[C@H]2CCC[C@H](OC3CCCC3)[C@@H](Oc3ccccc3)[C@H](C)OC2=O)c1OCOC(C)=O [F78] | 80 to 100 | 80 to 100 | 80 to 100 | 80 to 100 | 80 to 100 | pest or weed control at 100 ppm [3]: 80 to 100%; pest or weed control at 25 ppm (Phakopsora pachyrhizi; [9]): 80 to 100%
15 | 148 to 149 | COc1ccnc(C(=O)N[C@H]2CCC[C@H](Oc3ccccc3)[C@@H](OC3CCCC3)[C@H](C)OC2=O)c1OCOC(C)=O [F80] | 80 to 100 | 80 to 100 | 80 to 100 | 80 to 100 | 80 to 100 | pest or weed control at 25 ppm (Phakopsora pachyrhizi; [9]): 80 to 100%
16 | – | CCCO[C@H]1[C@H](C)OC(=O)[C@@H](NC(=O)c2nccc(OC)c2OCOC(C)=O)CCC[C@@H]1Oc1ccccc1 [F95] | 80 to 100 | 80 to 100 | 80 to 100 | 80 to 100 | 80 to 100 | pest or weed control at 25 ppm (Phakopsora pachyrhizi; [9]): 80 to 100%
17 | 99 to 100 | COc1ccnc(C(=O)N[C@H]2CCC[C@H](OC3CCCC3)[C@@H](OCC(C)C)[C@H](C)OC2=O)c1O [F119] | 80 to 100 | 80 to 100 | 80 to 100 | 80 to 100 | – | –
18 | 43 to 48 | COc1ccnc(C(=O)N[C@H]2CCC[C@H](OC3CCCC3)[C@@H](OCCCC(F)(F)F)[C@H](C)OC2=O)c1O [F120] | 80 to 100 | 80 to 100 | 80 to 100 | 80 to 100 | – | –
19 | – | COc1ccnc(C(=O)N[C@H]2CCC[C@H](OCCCc3ccccc3)[C@@H](Oc3ccccc3)[C@H](C)OC2=O)c1OCOC(C)=O [F133] | 80 to 100 | 80 to 100 | 80 to 100 | 80 to 100 | 80 to 100 | pest or weed control at 25 ppm (Phakopsora pachyrhizi; [9]): 0 to 80%
20 | 109 to 111 | CCCO[C@H]1[C@H](C)OC(=O)[C@@H](NC(=O)c2nccc(OC)c2O)CCC[C@@H]1OCC(C)C [F212] | 80 to 100 | 80 to 100 | 0 to 80 | 0 to 80 | – | –
21 | 63 to 66 | COc1ccnc(C(=O)N[C@H]2CCC[C@H](OCC(C)C)[C@@H](OC(=O)C3CC3)[C@H](C)OC2=O)c1O [F213] | 80 to 100 | 80 to 100 | 0 to 80 | 0 to 80 | – | –
22 | – | COc1ccnc(C(=O)N[C@H]2CCC[C@H](OC3CCCC3)[C@@H](OC3CCCC3)[C@H](C)OC2=O)c1OCOC(C)=O [F217] | 80 to 100 | 80 to 100 | 80 to 100 | 80 to 100 | 80 to 100 | pest or weed control at 100 ppm [3]: 80 to 100%
23 | – | COCCC(=O)Oc1c(OC)ccnc1C(=O)N[C@H]1CCC[C@H](Oc2ccccc2)[C@@H](OC(=O)C2CC2)[C@H](C)OC1=O [F243] | – | – | – | – | 80 to 100 | pest or weed control at 100 ppm ([1]; 24 h, Wheat Brown Rust, 1 Day Protectant, high volume application, read-out: Disease Control PUCCRT 1 DP 100 ppm): 80 to 100%; pest or weed control at 121.5 g/ha ([1]; 24 h, Wheat Brown Rust, 1 Day Protectant, read-out: Disease Control PUCCRT 1 DP 121.5 g/H): 80 to 100%; pest or weed control at 100 ppm ([1]; 72 h, Wheat Brown Rust, 3 Day Curative, high volume application, read-out: Disease Control PUCCRT 3 DC 100 ppm): 80 to 100%; pest or weed control at 121.5 g/ha ([1]; 72 h, Wheat Brown Rust, 3 Day Curative, read-out: Disease Control PUCCRT 3 DC 121.5 g/H): 80 to 100%; pest or weed control at 100 ppm ([2]; 24 h, Wheat Leaf Blotch, 1 Day Protectant, high volume application, read-out: Disease Control SEPTTR 1 DP 100 ppm): 80 to 100%; pest or weed control at 121.5 g/ha ([2]; 24 h, Wheat Leaf Blotch, 1 Day Protectant, read-out: Disease Control SEPTTR 1 DP 121.5 g/H): 0 to 80%; pest or weed control at 100 ppm ([2]; 72 h, Wheat Leaf Blotch, 3 Day Curative, high volume application, read-out: Disease Control SEPTTR 3 DC 100 ppm): 80 to 100%; pest or weed control at 121.5 g/ha ([2]; 72 h, Wheat Leaf Blotch, 3 Day Curative, read-out: Disease Control SEPTTR 3 DC 121.5 g/H): 80 to 100%; pest or weed control at 25 ppm (Phakopsora pachyrhizi; [9]): 0 to 80%
